Reference: PubChem BioAssay (NCI)
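Test compounds were applied to cells in 96-well plates for 48 hours at 5 doses. GI50: concentration for 50% inhibition of growth. The concentration for full growth arrest is given as TGI.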

Tests used:
Assay in all cases: growth of human tumour cells (NCI), 48 h
[1] = tested on: HCT-15 colon
[2] = tested on: SR leukemia
[3] = tested on: SNB-19 CNS
[4] = tested on: NCI-H522 lung
[5] = tested on: ACHN renal
[6] = tested on: T-47D breast
[7] = tested on: RPMI-8226 leukemia
[8] = tested on: PC-3 prostate
[9] = tested on: MDA-MB-435
[10] = tested on: SK-MEL-2 melanoma
[11] = tested on: SF-295 CNS
[12] = tested on: CAKI-1 renal
[13] = tested on: KM12 colon
[14] = tested on: IGROV1 ovarian
[15] = tested on: MALME-3M melanoma
[16] = tested on: HOP-62 NSCLC
[17] = tested on: HS 578T breast
[18] = tested on: SW-620 colon
[19] = tested on: SK-MEL-28 melanoma
[20] = tested on: NCI/ADR-RES ovarian
[21] = tested on: UO-31 renal
[22] = tested on: HOP-92 NSCLC
[23] = tested on: HCT-116 colon
[24] = tested on: SF-539 CNS
[25] = tested on: MOLT-4 leukemia
[26] = tested on: U251 CNS
[27] = tested on: NCI-H226 lung
[28] = tested on: CCRF-CEM leukemia
[29] = tested on: LOX IMVI melanoma
[30] = tested on: SK-OV-3 ovarian
[31] = tested on: A549 NSCLC
[32] = tested on: UACC-257 melanoma
[33] = tested on: OVCAR-3 ovarian
[34] = tested on: MCF7 breast
[35] = tested on: OVCAR-5 ovarian
[36] = tested on: A498 renal
[37] = tested on: SNB-75 CNS
[38] = tested on: 786-0 renal
[39] = tested on: HCC-2998 colon
[40] = tested on: MDA-MB-231 breast
[41] = tested on: RXF 393 renal
[42] = tested on: SN12C renal
[43] = tested on: DU-145 prostate
[44] = tested on: SF-268 CNS
[45] = tested on: TK-10 renal
[46] = tested on: OVCAR-4 ovarian
[47] = tested on: HL-60(TB) leukemia
[48] = tested on: SK-MEL-5 melanoma
[49] = tested on: UACC-62 melanoma
[50] = tested on: M14 melanoma
[51] = tested on: HT29 colon
[52] = tested on: OVCAR-8 ovarian
[53] = tested on: EKVX NSCLC
[54] = tested on: BT-549 breast
[55] = tested on: NCI-H460 lung
[56] = tested on: K-562 leukemia

## Cc1cn(-c2cc(NC(=O)c3cncc(C#Cc4cnc5ccc(OCCCS(C)(=O)=O)nn45)c3)cc(C(F)(F)F)c2)cn1
[1]
  GI50: 5.84 µM
  TGI: > 100 µM
[2]
  GI50: 0.303 µM
  TGI: 4.82 µM
[3]
  GI50: 2.57 µM
  TGI: > 100 µM
[4]
  GI50: 1.21 µM
  TGI: 3 µM
[5]
  GI50: 4.76 µM
  TGI: > 100 µM
[6]
  GI50: 1.76 µM
  TGI: > 100 µM
[7]
  GI50: 2.55 µM
  TGI: 92.6 µM
[8]
  GI50: 5.88 µM
  TGI: > 100 µM
[9]
  GI50: 1.49 µM
  TGI: > 100 µM
[10]
  GI50: 0.427 µM
  TGI: 2.88 µM
[11]
  GI50: 29.1 µM
  TGI: > 100 µM
[12]
  GI50: 0.501 µM
  TGI: 11.8 µM
[13]
  TGI: 3.36 µM
[14]
  GI50: 0.527 µM
  TGI: > 100 µM
[15]
  GI50: 0.397 µM
  TGI: 5.11 µM
[16]
  GI50: 1.14 µM
  TGI: > 100 µM
[17]
  GI50: 1.43 µM
  TGI: 7.03 µM
[18]
  GI50: 0.462 µM
  TGI: > 100 µM
[19]
  GI50: 1.51 µM
  TGI: > 100 µM
[20]
  GI50: > 100 µM
  TGI: > 100 µM
[21]
  GI50: 3.59 µM
  TGI: > 100 µM
[22]
  GI50: 0.188 µM
  TGI: 0.713 µM
[23]
  GI50: 0.317 µM
  TGI: 3.22 µM
[24]
  GI50: 0.552 µM
  TGI: 7.35 µM
[25]
  GI50: 0.635 µM
  TGI: 6.71 µM
[26]
  GI50: 2.67 µM
  TGI: > 100 µM
[27]
  GI50: 0.922 µM
  TGI: 49.1 µM
[28]
  GI50: 0.389 µM
  TGI: 3.61 µM
[29]
  GI50: 0.875 µM
  TGI: 27.1 µM
[30]
  GI50: > 100 µM
  TGI: > 100 µM
[31]
  GI50: 5.34 µM
  TGI: > 100 µM
[32]
  GI50: 3.98 µM
  TGI: > 100 µM
[33]
  GI50: 2.51 µM
  TGI: > 100 µM
[34]
  GI50: 0.31 µM
  TGI: 2.52 µM
[35]
  GI50: 1.79 µM
  TGI: > 100 µM
[36]
  GI50: > 100 µM
  TGI: > 100 µM
[37]
  GI50: 0.129 µM
  TGI: 1.76 µM
[38]
  GI50: 2.01 µM
  TGI: > 100 µM
[39]
  GI50: 1.94 µM
  TGI: > 100 µM
[40]
  GI50: 0.43 µM
  TGI: > 100 µM
[41]
  GI50: 1.14 µM
  TGI: 3.32 µM
[42]
  GI50: 0.551 µM
  TGI: > 100 µM
[43]
  GI50: 1.18 µM
  TGI: > 100 µM
[44]
  GI50: 1.41 µM
  TGI: 6.98 µM
[45]
  GI50: 3.21 µM
  TGI: > 100 µM
[46]
  GI50: 5.78 µM
  TGI: > 100 µM
[47]
  GI50: 0.401 µM
  TGI: 2.51 µM
[48]
  GI50: 1.55 µM
  TGI: 10.5 µM
[49]
  GI50: 0.706 µM
  TGI: > 100 µM
[50]
  GI50: 1.1 µM
  TGI: 49.4 µM
[51]
  GI50: 0.706 µM
  TGI: > 100 µM
[52]
  GI50: 0.649 µM
  TGI: > 100 µM
[53]
  GI50: 2.35 µM
  TGI: > 100 µM
[54]
  GI50: 1.7 µM
  TGI: 10.6 µM
[55]
  GI50: 3 µM
  TGI: > 100 µM
[56]
  GI50: 0.128 µM
  TGI: > 100 µM
